Assay results: article PMC8523698, “Preclinical characterization of an intravenous coronavirus 3CL protease inhibitor for the potential treatment of COVID19” (Nature Communications, 2021)
Where “and” joins values, the source holds several entries; their conditions need not be identical. Identical values can stand only once. Like-named read-outs stand apart in the source and are kept apart here.

What was measured:
[1] = biological target: IBV-CoV 3CL^pro (Avian infectious bronchitis virus, UniProt P0C6Y1); test: biochemical; settings: for Initial Velocity: triplicate, listed as Compound F2
Chain of IBV-CoV 3CL^pro (P0C6Y1 2780-3086): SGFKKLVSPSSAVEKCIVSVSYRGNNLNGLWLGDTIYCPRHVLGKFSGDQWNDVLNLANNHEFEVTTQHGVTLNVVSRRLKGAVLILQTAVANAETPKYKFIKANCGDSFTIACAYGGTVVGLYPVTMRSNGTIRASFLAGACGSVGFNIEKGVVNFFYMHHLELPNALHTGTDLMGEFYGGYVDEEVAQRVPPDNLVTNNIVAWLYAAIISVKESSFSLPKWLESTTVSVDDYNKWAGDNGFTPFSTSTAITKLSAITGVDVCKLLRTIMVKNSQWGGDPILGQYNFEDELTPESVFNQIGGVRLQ

[2] = Rat 4-day continuous intravenous infusion exploratory non-GLP toxicity study
[3] = biological target: HKU1-CoV 3CL^pro (Human coronavirus HKU1, UniProt P0C6X2); test: biochemical
Chain of HKU1-CoV 3CL^pro (P0C6X2 3335-3637): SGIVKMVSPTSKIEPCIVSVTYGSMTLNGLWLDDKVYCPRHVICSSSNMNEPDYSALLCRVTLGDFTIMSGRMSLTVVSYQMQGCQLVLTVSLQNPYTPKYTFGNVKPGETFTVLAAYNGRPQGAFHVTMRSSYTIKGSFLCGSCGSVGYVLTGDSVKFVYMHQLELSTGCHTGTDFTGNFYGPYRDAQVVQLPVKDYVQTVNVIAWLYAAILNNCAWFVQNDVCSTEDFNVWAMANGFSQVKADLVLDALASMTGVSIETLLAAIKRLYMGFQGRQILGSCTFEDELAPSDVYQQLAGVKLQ

[4] = system: SARS-CoV-2; test: microbe, parasite or virus in culture; type: cell-based; settings: Severe acute respiratory syndrome coronavirus 2, Vero C1008; N=3; read-out: EC50 ± Std. Dev
[5] = system: VeroE6-EGFP cells
[6] = biological target: T1, CYP2B6 (Homo sapiens, UniProt P20813); test: Reversible CYP inhibition in human liver microsomes; type: in vitro ADME; settings: for activity at 0.1 µM: pH 7.4, CYP 2B6, 0.1 µM; for activity at 0.1 µM / activity at 0.214 µM / activity at 0.979 µM / activity at 2.09 µM / activity at 4.48 µM / activity at 20.5 µM / activity at 43.8 µM / activity at 93.5 µM / activity at 200 µM: read-out: Percent of Control Activity; for activity at 0.214 µM: pH 7.4, CYP 2B6, 0.214 µM; for activity at 0.979 µM: pH 7.4, CYP 2B6, 0.979 µM; for activity at 2.09 µM: pH 7.4, CYP 2B6, 2.09 µM; for activity at 4.48 µM: pH 7.4, CYP 2B6, 4.48 µM; for activity at 20.5 µM: pH 7.4, CYP 2B6, 20.5 µM; for activity at 43.8 µM: pH 7.4, CYP 2B6, 43.8 µM; for activity at 93.5 µM: pH 7.4, CYP 2B6, 93.5 µM; for activity at 200 µM: pH 7.4, CYP 2B6, 200 µM
T1 sequence (P20813 1-491): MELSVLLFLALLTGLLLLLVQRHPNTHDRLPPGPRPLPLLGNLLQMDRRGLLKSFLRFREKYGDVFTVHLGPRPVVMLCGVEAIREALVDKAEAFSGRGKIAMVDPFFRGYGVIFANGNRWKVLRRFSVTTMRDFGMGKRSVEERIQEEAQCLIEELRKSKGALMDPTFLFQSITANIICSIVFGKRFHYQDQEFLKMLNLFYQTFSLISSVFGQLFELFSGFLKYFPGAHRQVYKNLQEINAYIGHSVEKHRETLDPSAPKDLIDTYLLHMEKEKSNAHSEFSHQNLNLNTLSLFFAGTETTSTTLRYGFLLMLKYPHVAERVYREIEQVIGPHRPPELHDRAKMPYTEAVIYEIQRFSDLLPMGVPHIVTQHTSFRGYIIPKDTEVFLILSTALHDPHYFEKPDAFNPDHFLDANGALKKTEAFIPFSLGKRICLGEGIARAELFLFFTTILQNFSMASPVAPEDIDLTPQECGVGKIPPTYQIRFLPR

[7] = biological target: PEDV 3CL^pro (Porcine epidemic diarrhea virus, UniProt P0C6Y4); type: biochemical
Chain of PEDV 3CL^pro (P0C6Y4 2998-3299): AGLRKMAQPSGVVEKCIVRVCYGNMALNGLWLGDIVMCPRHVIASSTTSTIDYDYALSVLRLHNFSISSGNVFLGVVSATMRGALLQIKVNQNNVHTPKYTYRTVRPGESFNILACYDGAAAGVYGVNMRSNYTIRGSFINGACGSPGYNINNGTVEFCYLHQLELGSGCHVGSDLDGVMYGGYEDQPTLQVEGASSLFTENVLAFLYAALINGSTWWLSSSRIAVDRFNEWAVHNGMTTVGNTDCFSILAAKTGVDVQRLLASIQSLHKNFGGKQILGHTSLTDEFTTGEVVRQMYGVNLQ

[8] = system: SARS-CoV-2; settings: cited from earlier work
[9] = biological target: Human Caspase 2 (Homo sapiens, UniProt P42575); test: Mammalian protease panel; type: biochemical
Chain of Human Caspase 2 (P42575 170-325 limits assumed): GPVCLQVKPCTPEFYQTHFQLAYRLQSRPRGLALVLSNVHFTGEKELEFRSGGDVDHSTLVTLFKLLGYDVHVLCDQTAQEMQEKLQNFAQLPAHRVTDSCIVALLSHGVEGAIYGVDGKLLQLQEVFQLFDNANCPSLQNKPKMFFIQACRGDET
Chain of Human Caspase 2 (P42575 348-452 limits assumed): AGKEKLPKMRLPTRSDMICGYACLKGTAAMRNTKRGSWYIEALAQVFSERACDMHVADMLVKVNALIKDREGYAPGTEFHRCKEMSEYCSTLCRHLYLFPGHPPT

[10] = system: Human Chymotrypsin; test: Mammalian protease panel; type: biochemical
[11] = biological target: OC43-CoV 3CL^pro (Human coronavirus OC43, UniProt P0C6X6); type: biochemical
Chain of OC43-CoV 3CL^pro (P0C6X6 3247-3549): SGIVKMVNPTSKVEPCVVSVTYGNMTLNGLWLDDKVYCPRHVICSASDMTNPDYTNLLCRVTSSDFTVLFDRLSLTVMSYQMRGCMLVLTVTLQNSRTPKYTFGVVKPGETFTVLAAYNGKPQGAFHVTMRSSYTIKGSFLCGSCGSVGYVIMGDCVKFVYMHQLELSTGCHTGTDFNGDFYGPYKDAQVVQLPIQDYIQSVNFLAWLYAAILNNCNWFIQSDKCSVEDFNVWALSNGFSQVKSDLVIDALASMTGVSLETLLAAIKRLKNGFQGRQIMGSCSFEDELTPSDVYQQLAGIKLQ

[12] = system: CYP3A; test: Enzyme kinetics of metabolite formation in HLM and effect of CYP3A inhibitor ketoconazole
[13] = biological target: CYP3A4/5 (Homo sapiens, UniProt P08684); test: Time-dependent inhibition of CYP enzymes in human liver microsomes; settings: CYP3A4; Simcyp interaction input
Chain of CYP3A4/5 (P08684 whole entry): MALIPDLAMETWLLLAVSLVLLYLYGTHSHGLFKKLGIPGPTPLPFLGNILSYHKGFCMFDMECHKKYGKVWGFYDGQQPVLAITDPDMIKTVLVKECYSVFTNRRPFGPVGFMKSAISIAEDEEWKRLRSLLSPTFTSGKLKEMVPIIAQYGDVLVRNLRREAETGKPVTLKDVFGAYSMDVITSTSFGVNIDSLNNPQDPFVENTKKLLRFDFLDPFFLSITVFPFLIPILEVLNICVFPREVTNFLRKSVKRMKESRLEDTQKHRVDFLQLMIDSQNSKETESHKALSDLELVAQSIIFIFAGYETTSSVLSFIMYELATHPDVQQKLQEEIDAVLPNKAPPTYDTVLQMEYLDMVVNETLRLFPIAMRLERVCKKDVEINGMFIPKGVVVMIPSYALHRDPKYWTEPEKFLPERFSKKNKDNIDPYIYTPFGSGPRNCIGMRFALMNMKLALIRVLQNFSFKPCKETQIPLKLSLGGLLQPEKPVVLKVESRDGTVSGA

[14] = biological target: FIPV 3CL^pro (Feline coronavirus, UniProt Q98VG9); type: biochemical
Chain of FIPV 3CL^pro (Q98VG9 2904-3205): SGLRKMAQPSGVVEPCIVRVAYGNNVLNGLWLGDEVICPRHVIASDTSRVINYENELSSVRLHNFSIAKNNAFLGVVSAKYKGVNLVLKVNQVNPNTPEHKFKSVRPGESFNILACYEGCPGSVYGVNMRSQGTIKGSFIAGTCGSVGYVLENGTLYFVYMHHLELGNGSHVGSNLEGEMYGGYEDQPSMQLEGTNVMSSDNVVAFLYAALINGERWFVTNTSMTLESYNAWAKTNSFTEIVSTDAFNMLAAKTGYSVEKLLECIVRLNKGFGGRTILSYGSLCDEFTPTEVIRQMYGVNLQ

[15] = biological target: HKU4-CoV 3CL^pro (Bat coronavirus HKU4, UniProt P0C6W3); type: biochemical; settings: for Initial Velocity: triplicate, listed as Compound F2
Chain of HKU4-CoV 3CL^pro (P0C6W3 3292-3597 limits assumed): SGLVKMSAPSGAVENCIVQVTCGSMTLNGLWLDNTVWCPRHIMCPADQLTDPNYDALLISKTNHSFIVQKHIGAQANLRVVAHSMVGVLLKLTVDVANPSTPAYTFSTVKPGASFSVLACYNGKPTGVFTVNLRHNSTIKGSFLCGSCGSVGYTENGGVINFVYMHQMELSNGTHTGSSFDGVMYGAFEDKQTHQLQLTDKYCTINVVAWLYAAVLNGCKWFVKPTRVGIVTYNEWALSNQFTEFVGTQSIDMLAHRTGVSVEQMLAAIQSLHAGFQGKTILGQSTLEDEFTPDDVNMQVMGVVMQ

[16] = human, human liver microsomes, 30-Minute Preincubation
[17] = human, human liver microsomes, Zero-Minute Preincubation

COc1cccc2[nH]c(C(=O)N[C@@H](CC(C)C)C(=O)N[C@@H](C[C@@H]3CCNC3=O)C(=O)CO)cc12 [PF-00835231]
Ki [1]: 4 ± 0.37 nM
Initial Velocity ([1]; [Compound F2] 1.95312 nM): 0.9151 and 0.9223 and 0.9303
Initial Velocity ([1]; [Compound F2] 3.90625 nM): 0.8719 and 0.9093 and 0.9026
Initial Velocity ([1]; [Compound F2] 7.8125 nM): 0.7237 and 0.7704 and 0.7494
Initial Velocity ([1]; [Compound F2] 31.25 nM): 0.2801 and 0.2824 and 0.2905
Initial Velocity ([1]; [Compound F2] 62.5 nM): 0.09406 and 0.0968 and 0.1078
Initial Velocity ([1]; [Compound F2] 250 nM): 0.02135 and 0.01561 and 0.01396
tolerated dose (highest feasible dose tested) ([2]; male rats, 4 days continuous IV infusion): 246 mg/kg/day
cholesterol vs controls ([2]; non-adverse): 1.3 x
mean triglycerides vs controls ([2]; non-adverse): 1.9-3.6 x
phosphorus vs controls ([2]; non-adverse): 1.1 x
Ki [3]: 0.85 ± 0.24 nM
EC50 [4]: 60 ± 30 nM
CC50 ([5]; African green monkey): > 50000 nM
CC50 ([5]; monkey): > 50000 nM
Percent of Control Activity ([6]; CYP 2B6, 0.1 µM, 30-Minute Preincubation, 0.1 µM): 95.8%
Percent of Control Activity ([6]; CYP 2B6, 0.1 µM, Zero-Minute Preincubation, 0.1 µM): 102.2% and 99.6%
Percent of Control Activity ([6]; CYP 2B6, 0.214 µM, 30-Minute Preincubation, 0.214 µM): 99.2% and 94.6%
Percent of Control Activity ([6]; CYP 2B6, 0.214 µM, Zero-Minute Preincubation, 0.214 µM): 97.5% and 98.9%
Percent of Control Activity ([6]; CYP 2B6, 0.979 µM, 30-Minute Preincubation, 0.979 µM): 92.8% and 97.7%
Percent of Control Activity ([6]; CYP 2B6, 0.979 µM, Zero-Minute Preincubation, 0.979 µM): 99.5% and 102.1%
Percent of Control Activity ([6]; CYP 2B6, 2.09 µM, Zero-Minute Preincubation, 2.09 µM): 101.6%
Percent of Control Activity ([6]; CYP 2B6, 4.48 µM, 30-Minute Preincubation, 4.48 µM): 102.3% and 98.3%
Percent of Control Activity ([6]; CYP 2B6, 4.48 µM, Zero-Minute Preincubation, 4.48 µM): 96.6%
Percent of Control Activity ([6]; CYP 2B6, 20.5 µM, 30-Minute Preincubation, 20.5 µM): 88.5% and 89.3%
Percent of Control Activity ([6]; CYP 2B6, 20.5 µM, Zero-Minute Preincubation, 20.5 µM): 90.2% and 87.9%
Percent of Control Activity ([6]; CYP 2B6, 43.8 µM, 30-Minute Preincubation, 43.8 µM): 89.3% and 86.6%
Percent of Control Activity ([6]; CYP 2B6, 43.8 µM, Zero-Minute Preincubation, 43.8 µM): 84.2% and 79.6%
Percent of Control Activity ([6]; CYP 2B6, 93.5 µM, 30-Minute Preincubation, 93.5 µM): 69.4% and 77.3%
Percent of Control Activity ([6]; CYP 2B6, 93.5 µM, Zero-Minute Preincubation, 93.5 µM): 73.2% and 72.0%
Percent of Control Activity ([6]; CYP 2B6, 200 µM, 30-Minute Preincubation, 200 µM): 59.5% and 60.0%
Percent of Control Activity ([6]; CYP 2B6, 200 µM, Zero-Minute Preincubation, 200 µM): 54.6% and 55.4%
activity at 0.1 µM [6, 16]: 102%
activity at 0.1 µM [6, 17]: 104%
activity at 0.214 µM [6, 16]: 103%
activity at 0.214 µM [6, 17]: 103%
activity at 0.979 µM [6, 16]: 100%
activity at 0.979 µM [6, 17]: 105%
activity at 2.09 µM [6, 16]: 101%
activity at 2.09 µM [6, 17]: 105%
activity at 4.48 µM [6, 16]: 103%
activity at 4.48 µM [6, 17]: 100%
activity at 20.5 µM [6, 16]: 91.3%
activity at 20.5 µM [6, 17]: 91.9%
activity at 43.8 µM [6, 16]: 87.1%
activity at 43.8 µM [6, 17]: 86.4%
activity at 93.5 µM [6, 16]: 73.5%
activity at 93.5 µM [6, 17]: 73.7%
activity at 200 µM [6, 16]: 59%
activity at 200 µM [6, 17]: 55.5%
IC50 ([6]; human, human liver microsomes, pH 7.4, probe bupropion (hydroxylation), at approximately KM): > 200000 nM
Ki [7]: 0.3 ± 0.11 nM
EC50 ([8]; P-gp inhibitor 0 uM): 193 nM
EC50 ([8]; P-gp inhibitor 1 uM): 178 nM
EC90 ([8]; human lung carcinoma cells): 440 nM
IC50 [9]: > 33000 nM
IC50 [10]: > 100000 nM
Ki [11]: 0.51 ± 0.12 nM
fm,CYP3A ([12]; formation of the metabolite from PF-00835231 in HLM): 0.86
microsomal CLint ([12]; human, pooled human liver microsomes, pH 7.5): 4.2 µL/min/mg
MBI Kapp [13]: 163.000 µM
Ki [14]: 0.12 ± 0.1 nM
Initial Velocity ([15]; [Compound F2] 1.95312 nM): 0.9709 and 0.9956 and 0.9685
Initial Velocity ([15]; [Compound F2] 3.90625 nM): 0.9706 and 0.9741 and 0.9413
Initial Velocity ([15]; [Compound F2] 7.8125 nM): 0.919 and 0.9344 and 0.9288
Initial Velocity ([15]; [Compound F2] 20 nM): 0.7972 and 0.7875 and 0.7775
Initial Velocity ([15]; [Compound F2] 30 nM): 0.5859 and 0.5869 and 0.5914
Initial Velocity ([15]; [Compound F2] 40 nM): 0.342 and 0.3124 and 0.3465
Initial Velocity ([15]; [Compound F2] 50 nM): 0.1072 and 0.09971 and 0.1255
Initial Velocity ([15]; [Compound F2] 60 nM): 0.03996 and 0.02999 and 0.0446
Initial Velocity ([15]; [Compound F2] 80 nM): 0.0186 and 0.01858 and 0.02101
Initial Velocity ([15]; [Compound F2] 100 nM): 0.01432 and 0.02363 and 0.01328
Initial Velocity ([15]; [Compound F2] 400 nM): 0.004976 and 0.003329 and 0.004577
Ki ([15]; mean ± SEM): 0.034 ± 0.079 nM
